Laboratory results: patent publication US20250084062A1, “SUBSTITUTED QUINOLINE DERIVATIVE” (ASTELLAS PHARMA INC., priority 2021, published 2025)
Structures can show the parent of a compound that is named as a salt.

Test system: acetylcholine receptor clustering in C2Cl2 cells
Test: Induction of acetylcholine receptor clustering in mouse myoblasts C2Cl2 cells (Test Example 1)
Assay type: cell-based
Conditions: Mus musculus; for Emax: Myoblast, maximum response, area of acetylcholine receptor cluster region vs 10 ng/ml Agrin (100%), 0.1 ng/ml Agrin = 0%, read-out: Max; for EC50: Myotube, C2Cl2 myotubes, with 0.1 ng/ml Agrin, concentration giving 50% of cluster area of 10 ng/ml Agrin (100%), read-out: EC50
Procedure: Test Example 1: Evaluation of the Induction of Acetylcholine Receptor Clustering in Mouse Myoblasts C2Cl2 Cells
Induction of acetylcholine receptor clustering by the test compound was evaluated by using fluorescently-labeled Bungarotoxin to image and quantify the acetylcholine receptor cluster region induced by the differentiation of myoblasts into myotubes, and measure the change in area. The following test method was optimized with reference to various reports including FEBS let., 586, 3111-3116 (2012). When a concentration response curve is obtained by plotting the logarithmic concentration of the test compound on the horizontal axis and the ratio of the area of acetylcholine receptor cluster region on the vertical axis, the inducing action of the test compound can be determined.
A concentration response curve as an index indicating acetylcholine receptor clustering inducing action of the test compound in mouse C2Cl2 cells was prepared. C2Cl2 cells (ATCC Number: CRL-1772) were seeded at about 5000 cells/well on a 384-well plate (354667; Corning) coated with type I collagen and allowed to incubate at 37 degrees Celsius overnight in DMEM+20% FBS+1% penicillin/streptomycin medium. The following day, the medium was removed and replaced with a differentiation medium containing DMEM+2% FBS+1% penicillin/streptomycin, and allowed to incubate at 37 degrees Celsius for 4 days. The test compound was dissolved in DMSO and added to a differentiation medium containing 0.1 ng/ml Agrin (550-AG-100; R&D systems) such that the final concentration was […] (3-fold serial dilution) or 0.00017 to 3.3 μM (3-fold serial dilution). The final concentration of DMSO was 0.3%. After the 4 days of incubation, the differentiation medium was replaced with a differentiation medium containing the test compound and 0.1 ng/ml Agrin or a differentiation medium containing 0.1 ng/ml Agrin or 10 ng/ml Agrin alone, and allowed to incubate at 37 degrees Celsius overnight. The next day, 10 μl of DMEM containing Bungarotoxin-Alexa488 (B13422; Life technologies) was added to the differentiation medium containing test compound and Agrin and Agrin alone so that the final concentration of Bungarotoxin-Alexa488 was 1 μg/ml, and was allowed to incubate at 37 degrees Celsius for 1 hour to label the acetylcholine receptor. After removing all the medium, 4% PFA was added to each well and allowed to incubate at room temperature for 10 minutes, then washed with PBS, and allowed to incubate at room temperature for 30 minutes in PBS containing 5% goat serum and 0.3% Triton X-100. After removing the PBS solution, PBS-Tween20 (28352; Thermo fisher scientific) containing Anti-Myosin Heavy Chain eFluor (registered trademark) 660 (50-6503-82; eBioscience) and DAPI (340-07971; Dojindo) was added to each well and allowed to incubate at room temperature for 1 hour to label the myotubes and nuclei. After washing three times with PBS-Tween20, the fluorescence was imaged using IN Cell Analyzer 6000 (GE Healthcare). […] The response of control group (1) was regarded as 0% and the response of the control group (2) was regarded as 100%. For quantification, the signal of only the acetylcholine receptor present in the myotube was used to eliminate non-specific fluorescence.
EC50 and Max value were used as indicators of activity in order to quantitatively evaluate the inducing action of the test compound on acetylcholine receptor clustering. EC50 value is a test compound concentration which indicates 50% in terms of the area of acetylcholine receptor cluster region compared to that of 10 ng/ml Agrin (regarded as 100%) in the concentration response curve. EC50 was calculated by nonlinear regression analysis from the concentration response curve using the area of the cluster region of the test compound as an index. Max value is the maximum response value. […]

EC50 [nM]	SMILES	Emax [%]
303	Cc1c(F)c(-c2c(F)cc(S(=O)(=O)N3CC[C@H](F)C3)cc2F)nc2cc(C(=O)N3CC(C)(C(=O)O)C3)ccc12 [Example 11, 1-(2-{2,6-difluoro-4-[(3S)-3-fluoropyrrolidine-1-sulfonyl]phenyl}-3-fluoro-4-methylquinoline-7-carbonyl)-3-methylazetidine-3-carboxylic acid]	80.2
428	Cc1cc(-c2ccc(S(=O)(=O)N3CCCCC3)cc2)nc2cc(C(=O)O)ccc12 [Example 47]	102
1850	Cc1cc(-c2ccc(S(=O)(=O)N3CC[C@H](F)C3)cc2F)nc2c(F)c(C(=O)O)ccc12 [Example 7, 8-fluoro-2-{2-fluoro-4-[(3S)-3-fluoropyrrolidine-1-sulfonyl]phenyl}-4-methylquinoline-7-carboxylic acid]	78.4
1900	Cc1cc(-c2c(F)cc(S(=O)(=O)N3CC[C@@H](F)C3)cc2F)nc2cc(C(=O)O)ccc12 [Example 22]	84.8
52	Cc1cc(-c2c(F)cc(S(=O)(=O)N3CCC(F)CC3)cc2F)nc2cc(C(=O)NC3CN(C)C3)ccc12 [Example 41]	87
5	Cc1c(F)c(-c2c(F)cc(S(=O)(=O)N3CCC(F)CC3)cc2F)nc2cc(C(=O)N3CC4(CN(C)C4)C3)ccc12 [Example 44]	81.8
165	Cc1cc(-c2ccc(S(=O)(=O)N3CCCCC3)cc2)nc2cc(OCCO)ccc12 [Example 63]	104
11	CNCCNC(=O)c1ccc2c(C)cc(-c3c(F)cc(S(=O)(=O)N4CCC(F)CC4)cc3F)nc2n1 [Example 60]	99.2
20	Cc1cc(-c2c(F)cc(S(=O)(=O)N3CC[C@H](F)C3)cc2F)nc2cc(/C=C/C(=O)O)ccc12 [Example 35]	99.5
268	Cc1cc(-c2c(F)cc(S(=O)(=O)N3CC[C@H](F)C3)cc2F)nc2cc(C(=O)N[C@@H](CN)C(=O)O)ccc12 [Example 12, (2S)-3-amino-2-(2-{2,6-difluoro-4-[(3S)-3-fluoropyrrolidine-1-sulfonyl]phenyl}-4-methylquinoline-7-carboxamido) propanoic acid hydrochloride]	69.7
45	COc1cc(S(=O)(=O)N2CC[C@H](F)C2)cc(F)c1-c1cc(C)c2ccc(C(=O)O)nc2c1 [Example 8, 7-{2-fluoro-4-[(3S)-3-fluoropyrrolidine-1-sulfonyl]-6-methoxyphenyl}-5-methylquinoline-2-carboxylic acid]	88.2
19	Cc1cc(-c2c(F)cc(S(=O)(=O)N3CC[C@H](F)C3)cc2F)nc2cc(C(=O)N3CC4(CN(C)C4)C3)ccc12 [Example 42]	78.1
89	Cc1c(F)c(-c2c(F)cc(S(=O)(=O)N3CC[C@H](F)C3)cc2F)nc2cc(C3CCNCC3)ccc12 [Example 57]	87

Second part, the molecule before the results:

SMILES	EC50 [nM]	Emax [%]
Cc1cc(-c2c(F)cc(S(=O)(=O)N3CCC(F)CC3)cc2F)nc2cc(C(=O)N3CC4(CN(C)C4)C3)ccc12 [Example 3, {2-[2,6-difluoro-4-(4-fluoropiperidine-1-sulfonyl)phenyl]-4-methylquinolin-7-yl}(6-methyl-2,6-diazaspiro[3.3]heptan-2-yl) methanone]	2	91.8
Cc1cc(-c2c(F)cc(S(=O)(=O)N3CCC(F)CC3)cc2F)nc2cc(C(=O)N3CC4(CNC4)C3)ccc12 [Example 14, (2,6-diazaspiro[3.3]heptan-2-yl) {2-[2,6-difluoro-4-(4-fluoropiperidine-1-sulfonyl)phenyl]-4-methylquinolin-7-yl}methanone]	21	83.5
CNCCNC(=O)c1ccc2c(C)cc(-c3c(F)cc(S(=O)(=O)N4CC[C@H](F)C4)cc3F)nc2c1 [Example 10, 2-{2,6-difluoro-4-[(3S)-3-fluoropyrrolidine-1-sulfonyl]phenyl}-4-methyl-N-[2-(methylamino)ethyl]quinoline-7-carboxamide hydrochloride]	16	96.7
Cc1cc(-c2c(F)cc(S(=O)(=O)N3CCC(F)CC3)cc2F)nc2nc(C(=O)N3CC4(CN(C)C4)C3)ccc12 [Example 46]	43	80.9
Cc1cc(-c2ccc(S(=O)(=O)N3CC[C@H](F)C3)cc2F)nc2cc(OCCN)ccc12 [Example 13, 2-[(2-{2-fluoro-4-[(3S)-3-fluoropyrrolidine-1-sulfonyl]phenyl}-4-methylquinolin-7-yl)oxy]ethan-1-amine hydrochloride]	3	117
Cc1cc(-c2c(F)cc(S(=O)(=O)N3CC[C@H](F)C3)cc2F)nc2cc(C(=O)O)ccc12 [Example 1, 2-{2,6-difluoro-4-[(3S)-3-fluoropyrrolidine-1-sulfonyl]phenyl}-4-methylquinoline-7-carboxylic acid]	64	91.9
Cc1cc(-c2ccc(S(=O)(=O)N3CC[C@H](F)C3)cc2F)nc2cc(OC[C@@H](O)CO)ccc12 [Example 64]	24	107
Cc1c(F)c(-c2c(F)cc(S(=O)(=O)N3CC[C@H](F)C3)cc2F)nc2cc(C(=O)N3CC4(CN(C)C4)C3)ccc12 [Example 45]	9	86.1
Cc1cc(-c2c(F)cc(S(=O)(=O)N3CC[C@H](F)C3)cc2F)nc2nc(OCC(=O)O)ccc12 [Example 6, [(7-{2,6-difluoro-4-[(3S)-3-fluoropyrrolidine-1-sulfonyl]phenyl}-5-methyl-1,8-naphthyridin-2-yl)oxy]acetic acid]	1820	76.3
Cc1cc(-c2c(F)cc(S(=O)(=O)N3CC[C@H](F)C3)cc2F)nc2cc(C(=O)NC3CCNC3)ccc12 (stereo partly shown) [Example 53]	96	77.9
Cc1cc(-c2c(F)cc(S(=O)(=O)N3CCC(F)CC3)cc2F)nc2cc(C(=O)N3CC(N)C3)ccc12 [Example 4, (3-aminoazetidin-1-yl) {2-[2,6-difluoro-4-(4-fluoropiperidine-1-sulfonyl)phenyl]-4-methylquinolin-7-yl}methanone]	13	81
Cc1cc(-c2c(F)cc(S(=O)(=O)N3CCCC3)cc2F)nc2cc(C(=O)O)ccc12 [Example 21]	147	97.3
Cc1c(F)c(-c2c(F)cc(S(=O)(=O)N3CCCC3)cc2F)nc2cc(C(=O)O)ccc12 [Example 23]	69	85.9
